Data as given in patent US7985731B2, “Sugar chain added GLP-1 peptide” (Otsuka Chemical Holdings Co., Ltd., priority 2007, dated 2011).

Tests used:
[1] = target: T1, mouse GLP-1 receptor (Mus musculus, UniProt O35659); experiment: Test Example 6: ability to synthesize cAMP in mouse GLP-1 receptor-expressing CHO-K1 cells; assay type: cell-based
T1 construct: expressed in transfected cells
T1 sequence (O35659 22-463): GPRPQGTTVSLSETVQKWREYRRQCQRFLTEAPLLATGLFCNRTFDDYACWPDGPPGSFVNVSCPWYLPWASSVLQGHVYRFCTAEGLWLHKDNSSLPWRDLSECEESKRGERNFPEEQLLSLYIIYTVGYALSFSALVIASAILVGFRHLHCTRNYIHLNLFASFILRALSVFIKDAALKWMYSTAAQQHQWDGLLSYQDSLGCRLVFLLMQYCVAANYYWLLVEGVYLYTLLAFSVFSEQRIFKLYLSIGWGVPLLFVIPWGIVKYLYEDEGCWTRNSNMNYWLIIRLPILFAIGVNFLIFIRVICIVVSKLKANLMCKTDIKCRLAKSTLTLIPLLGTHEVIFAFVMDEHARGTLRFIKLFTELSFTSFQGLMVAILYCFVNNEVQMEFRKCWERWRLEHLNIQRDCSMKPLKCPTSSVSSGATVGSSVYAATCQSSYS
Method: 1. Construction of Mouse GLP-1 Receptor-Expressing Vector
A mouse GLP1 receptor sense primer (5′-[…]-3′) (SEQ ID NO: 152) and a mouse GLP-1 receptor antisense primer (5′-[…]-3′) (SEQ ID NO: 153) capable of binding to the 5′ and 3′ ends of mouse GLP-1 receptor cDNA were separately synthesized. PCR was performed using Ex Taq polymerase (TaKaRa) with cDNA (Clone ID: 40046534, Open Biosystems) as a template. Specifically, 50 μL in total of reaction solution consisting of 1 μL of template cDNA (10 ng/μL), 4 μL of 2.5 mM dNTPs, 1 μL of primer solution mixtures (each 50 μM), 5 μL of ×10 Ex Taq polymerase Buffer, 0.25 μL of Ex Taq polymerase and 38.75 μL of sterilized water was used and allowed to react by 94° C. for 1 minute; 94° C. for 45 seconds, 55° C. for 1 minute and 72° C. for 2 minutes (35 cycles); and 72° C. for 10 minutes. The PCR reaction product was electrophoresed on 1% agarose gel, and the cDNA fragment was purified using Wizard SV Gel and PCR Clean-up System (Promega) and treated with restriction enzymes (EcoRI and NheI) to obtain mouse GLP-1 receptor cDNA.
To efficiently obtain cells highly expressing a mouse GLP-1 receptor, a pIRES-gfp vector was used as an expression vector. This vector was prepared by inserting, to a vector pEGFP-N1 (Clontech), an IRES gene-containing DNA fragment obtained by the restriction enzyme treatment (Sal I and BamHI) of pIRESpuro2 (Clontech).
The mouse GLP-1 receptor cDNA fragment was inserted to pIRES-gfp to thereby obtain a mouse GLP-1 receptor-expressing vector mGLP-1R/pIRES-gfp. The DNA sequence of the obtained vector was confirmed using ABI3100-Avant (Applied Biosystems).
2. Preparation of Mouse GLP-1 Receptor-Expressing CHO-K1 Cells
CHO-K1 cells (ATCC catalog No. CCL-61) were transfected with the obtained mGLP-1R/pIRES-gfp using FuGENE (registered trademark) (Roche) according to the instruction manual. The transfected CHO-K1 cells were cultured in RPMI1640 medium (Wako Pure Chemical Industries) containing 10% FCS (Hyclone) and penicillin-streptomycin (SIGMA). Drug selection was conducted by the addition of 1.0 mg/ml G418 (Wako Pure Chemical Industries). The drug resistance cells were sorted with a cell sorter (EPICS ALTRA, Beckman Coulter) using a GFP expression level as an index. After the sorting, the limiting dilution method was conducted to obtain cells highly expressing GFP, namely, cells highly expressing a mouse GLP-1 receptor. The obtained cells were used as mouse GLP-1 receptor-expressing CHO-K1 cells in the experiment shown below.
3. Analysis of Agonist Effect of Oligosaccharide Chain Added GLP-1 Peptide (Ability to Synthesize cAMP)
The mouse GLP-1 receptor-expressing CHO-K1 cells prepared in the preceding paragraph 2 were used to evaluate the agonist effect of the oligosaccharide chain added GLP-1 peptide using the ability to synthesize cAMP as an index.
The mouse GLP-1 receptor-expressing CHO-K1 cells were suspended at a concentration of 5×10^5 cells/ml in RPMI1640 medium containing 10% FCS. The cell suspension was seeded at a concentration of 100 μL per well to a flat-bottomed 96-well plate (Falcon) and cultured at 5% CO2 at 37° C. for 16 hours. The culture supernatant was discarded. The oligosaccharide chain added GLP-1 peptide dissolved in Krebs Ringer bicarbonate Buffer containing 2.5 mM glucose was added at a concentration of 100 μL/well and cultured at 37° C. for 30 minutes. The culture supernatant was immediately discarded. The amount of cAMP synthesized in the mouse GLP-1 receptor-expressing CHO-K1 cells was measured using cAMP ELISA Kit (GE Healthcare or Cayman) and used as an index for the agonist effect of the oligosaccharide chain added GLP-1 peptide on mouse GLP-1 receptors.
GLP-1 increases intracellular cAMP concentrations through the binding to its receptor and promotes insulin secretion. Thus, the activity of the oligosaccharide chain added GLP-1 peptide was evaluated using the ability to synthesize cAMP as an index. […]

[2] = test system: db/db (BKS.Cg-+Lepr db/+Lepr db/Jcl) mice; experiment: Test Example 8: effect of lowering blood-sugar levels in diabetes model mice; assay type: in vivo; conditions: 9 nmol/kg intraperitoneal; for effect of lowering blood-sugar levels in db/db mice: 10-week-old male mice; for durability of effect of lowering blood-sugar levels in db/db mice: up to 300 minutes
Method: The oligosaccharide chain added GLP-1 peptide prepared in Example 2, 3, 4, 21 or 23 or the GLP-1 prepared in Comparative Example 1 in a PBS solution (9 nmol/10 ml) was intraperitoneally administered at a dose of 10 ml/kg to BKS.Cg−+Lepr^db/+Lepr^db/Jcl mice (10 week old, male). Blood was collected from the orbits before the compound administration and 30 minutes, 60 minutes, 120 minutes, 180 minutes and 300 minutes after the compound administration. Blood-sugar levels were measured using ACCU-CHEK Aviva (Roche Diagnostics).
The db/db (BKS.Cg−+Lepr^db/+Lepr^db/Jcl) mice serving as diabetes model mice have a mutation in a receptor of leptin which is anorexigenic/energy metabolism-accelerating hormone and develops conditions such as obesity or hyperglycemia.
Blood-sugar levels were measured over time, and their effects of lowering blood-sugar levels were compared with that of the GLP-1 without oligosaccharide chain addition of Comparative Example 1.

[3] = test system: C57BL/6JJcl mice; experiment: Test Example 7: Oral Glucose Tolerance Test (OGTT); assay type: in vivo; conditions: for dose dependence of activity of suppressing rise in blood-sugar levels in OGTT: doses 0.9 nmol/kg and 0.09 nmol/kg intraperitoneal
Method in brief: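 Overnight-fasted mice received oral glucose 1 mg/g 30 minutes after treatment. Orbital blood taken before and at 30, 60, 120 minutes post-glucose. Blood glucose measured by glucometer.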

[4] = 9 nmol/kg intraperitoneal 30 minutes before glucose 1 mg/g oral

Structure (SMILES) | cAMP synthesis activity compared with GLP-1 (in words) [1] | effect of lowering blood-sugar levels in db/db mice [2] | durability of effect of lowering blood-sugar levels in db/db mice [2] | activity of suppressing rise in blood-sugar levels in OGTT ([3]; 0.09 nmol/kg intraperitoneal) | effect of suppressing rise in blood-sugar levels in OGTT ([3]; 0.9 nmol/kg intraperitoneal) | effect of suppressing rise in blood-sugar levels in OGTT [3, 4] | dose dependence of activity of suppressing rise in blood-sugar levels in OGTT [3] | activity of suppressing rise in blood-sugar levels in OGTT relative to GLP-1 (times) ([3]; from doses giving equivalent effect, GLP-1 at 9 nmol/kg) | efficacy relative to 30Cys GLP-1-disialo and 36Cys GLP-1-disialo at the same dose in OGTT ([3]; 0.9 nmol/kg intraperitoneal)
CC[C@H](C)[C@H](NC(=O)[C@H](Cc1ccccc1)NC(=O)[C@H](CCC(=O)O)NC(=O)[C@H](CCCCN)NC(=O)[C@H](C)NC(=O)[C@H](C)NC(=O)[C@H](CCC(N)=O)NC(=O)CNC(=O)[C@H](CCC(=O)O)NC(=O)[C@H](CC(C)C)NC(=O)[C@H](Cc1ccc(O)cc1)NC(=O)[C@H](CO)NC(=O)[C@H](CO)NC(=O)[C@@H](NC(=O)[C@H](CC(=O)O)NC(=O)[C@H](CO)NC(=O)[C@@H](NC(=O)[C@H](Cc1ccccc1)NC(=O)[C@@H](NC(=O)CNC(=O)[C@H](CCC(=O)O)NC(=O)[C@H](C)NC(=O)[C@@H](N)Cc1c[nH]cn1)[C@@H](C)O)[C@@H](C)O)C(C)C)C(=O)N[C@@H](C)C(=O)N[C@@H](Cc1c[nH]c2ccccc12)C(=O)N[C@@H](CC(C)C)C(=O)N[C@H](C(=O)N[C@@H](CCCCN)C(=O)NCC(=O)N[C@@H](CSCC(=O)N[C@@H]1O[C@H](CO)[C@@H](O[C@@H]2O[C@H](CO)[C@@H](O[C@@H]3O[C@H](CO[C@H]4O[C@H](CO)[C@@H](O)[C@H](O)[C@@H]4O[C@@H]4O[C@H](CO)[C@@H](O[C@@H]5O[C@H](CO[C@]6(C(=O)O)C[C@H](O)[C@@H](NC(C)=O)[C@H]([C@H](O)[C@H](O)CO)O6)[C@H](O)[C@H](O)[C@H]5O)[C@H](O)[C@H]4NC(C)=O)[C@@H](O)[C@H](O[C@H]4O[C@H](CO)[C@@H](O)[C@H](O)[C@@H]4O[C@@H]4O[C@H](CO)[C@@H](O[C@@H]5O[C@H](CO[C@]6(C(=O)O)C[C@H](O)[C@@H](NC(C)=O)[C@H]([C@H](O)[C@H](O)CO)O6)[C@H](O)[C@H](O)[C@H]5O)[C@H](O)[C@H]4NC(C)=O)[C@@H]3O)[C@H](O)[C@H]2NC(C)=O)[C@H](O)[C@H]1NC(C)=O)C(=O)NCC(=O)O)C(C)C [Example 4, 36Cys GLP-1-disialo] | activity equal to or more than that of the GLP-1 | strong effect of lowering blood-sugar levels | blood-sugar levels were kept at low levels after 300 minutes | equivalent to that of the GLP-1 at a dose of 9 nmol/kg | suppressed rise in blood-sugar levels almost completely | strong effect of suppressing rise in blood-sugar levels | dose-dependent activity of suppressing rise in blood-sugar levels | about 100 times | 
CC[C@H](C)[C@H](NC(=O)[C@H](Cc1ccccc1)NC(=O)[C@H](CCC(=O)O)NC(=O)[C@H](CCCCN)NC(=O)[C@H](C)NC(=O)[C@H](C)NC(=O)[C@H](CCC(N)=O)NC(=O)CNC(=O)[C@H](CCC(=O)O)NC(=O)[C@H](CC(C)C)NC(=O)[C@H](Cc1ccc(O)cc1)NC(=O)[C@H](CO)NC(=O)[C@H](CO)NC(=O)[C@@H](NC(=O)[C@H](CC(=O)O)NC(=O)[C@H](CO)NC(=O)[C@@H](NC(=O)[C@H](Cc1ccccc1)NC(=O)[C@@H](NC(=O)CNC(=O)[C@H](CCC(=O)O)NC(=O)[C@H](C)NC(=O)[C@@H](N)Cc1c[nH]cn1)[C@@H](C)O)[C@@H](C)O)C(C)C)C(=O)N[C@@H](C)C(=O)N[C@@H](Cc1c[nH]c2ccccc12)C(=O)N[C@@H](CC(C)C)C(=O)N[C@H](C(=O)N[C@@H](CSCC(=O)N[C@@H]1O[C@H](CO)[C@@H](O[C@@H]2O[C@H](CO)[C@@H](O[C@@H]3O[C@H](CO[C@H]4O[C@H](CO)[C@@H](O)[C@H](O)[C@@H]4O[C@@H]4O[C@H](CO)[C@@H](O[C@@H]5O[C@H](CO[C@]6(C(=O)O)C[C@H](O)[C@@H](NC(C)=O)[C@H]([C@H](O)[C@H](O)CO)O6)[C@H](O)[C@H](O)[C@H]5O)[C@H](O)[C@H]4NC(C)=O)[C@@H](O)[C@H](O[C@H]4O[C@H](CO)[C@@H](O)[C@H](O)[C@@H]4O[C@@H]4O[C@H](CO)[C@@H](O[C@@H]5O[C@H](CO[C@]6(C(=O)O)C[C@H](O)[C@@H](NC(C)=O)[C@H]([C@H](O)[C@H](O)CO)O6)[C@H](O)[C@H](O)[C@H]5O)[C@H](O)[C@H]4NC(C)=O)[C@@H]3O)[C@H](O)[C@H]2NC(C)=O)[C@H](O)[C@H]1NC(C)=O)C(=O)NCC(=O)N[C@@H](CCCNC(=N)N)C(=O)NCC(=O)O)C(C)C [Example 23, 34Cys GLP-1-disialo] | activity equal to or more than that of the GLP-1 | strong effect of lowering blood-sugar levels | effects of lowering blood-sugar levels were slightly weakened over time |  |  | strong effect of suppressing rise in blood-sugar levels | dose-dependent activity of suppressing rise in blood-sugar levels |  | about ½
